Assay results: patent US12086788B2, “Substituted pyrazines as inhibitors of BTK, and mutants thereof” (Newave Pharmaceutical Inc., priority 2018, dated 2024)
“Also recorded” adds a separate entry of the source.

Assays:
WT BTK [1] = target: T1, WT BTK (Homo sapiens, UniProt Q06187); experiment: In vitro dialysis assay (irreversibility assay); type: biochemical; settings: from recovery after 24 h dialysis
Description: The compound-enzyme complex was dialyzed against the same buffer supplemented with 40 mM ATP for 24 hr. Cumulative dialysis factor>160,000×. After dialysis, the BTK activity was measured in the presence […] and 1 mM substrate peptide and compared to that in non-dialyzed samples. Assay buffer: 100 mM HEPES, pH7.5; 0.1% BSA, 0.01% Triton-X 100; 5 mM MgCl2; 1 mM DTT.

[2] = Phase I clinical trials, formulations containing GDC-0853; cited from earlier work
[3] = tested on: basophil activation, B cell receptor activation, and constitutive p-BTK activity in whole blood lysates; settings: read-out: IC50s for basophil activation, B cell receptor activation, and constitutive p-BTK activity; cited from earlier work
mice = settings: even at higher doses; cited from earlier work
dogs = settings: even at higher doses; cited from earlier work
rats = settings: treatment for longer than 7 days; cited from earlier work
WT BTK [4] = target: T1, WT BTK; experiment: Caliper-based biochemical enzymatic assay (IC50), WT BTK; settings: 0.5 nM enzyme, ATP 16 μM, room temperature 3 h; read-out: WT BTK IV50 (nM) (irreversible inhibition)
Description: (§1) The reaction was then terminated with EDTA, final concentration 20 mM and the phosphorylated reaction product was quantified on a Caliper Desktop Profiler (Caliper LabChip 3000).

C481S BTK [5] = target: T2, C481S BTK (Homo sapiens, UniProt Q06187, C481S); experiment: Caliper-based biochemical enzymatic assay (IC50), C481S BTK; settings: for IC50: 0.5 nM enzyme, ATP 16 μM, room temperature 3 h, read-out: C481S BTK IC50 (nM) (reversible inhibition)
T2 sequence (Q06187 whole entry C481S): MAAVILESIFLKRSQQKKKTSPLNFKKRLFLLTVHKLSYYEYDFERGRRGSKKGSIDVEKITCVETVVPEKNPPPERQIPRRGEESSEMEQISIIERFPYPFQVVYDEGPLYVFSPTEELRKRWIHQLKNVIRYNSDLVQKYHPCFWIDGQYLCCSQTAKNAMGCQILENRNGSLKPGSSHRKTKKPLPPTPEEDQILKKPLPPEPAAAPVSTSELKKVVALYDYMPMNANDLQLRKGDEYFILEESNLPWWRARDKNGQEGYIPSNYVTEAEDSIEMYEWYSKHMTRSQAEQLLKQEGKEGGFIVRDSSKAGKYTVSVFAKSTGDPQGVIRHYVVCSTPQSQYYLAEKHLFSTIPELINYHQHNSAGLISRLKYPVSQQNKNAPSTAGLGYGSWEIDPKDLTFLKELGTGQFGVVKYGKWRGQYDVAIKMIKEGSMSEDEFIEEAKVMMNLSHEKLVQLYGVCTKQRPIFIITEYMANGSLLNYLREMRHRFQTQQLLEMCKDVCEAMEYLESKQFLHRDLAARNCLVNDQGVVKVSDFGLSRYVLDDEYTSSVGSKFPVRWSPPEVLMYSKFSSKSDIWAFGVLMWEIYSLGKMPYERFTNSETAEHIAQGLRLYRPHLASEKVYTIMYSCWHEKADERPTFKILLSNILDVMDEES
Description: as §1

C481S BTK [6] = target: T2, C481S BTK; experiment: Reversibility of binding to the C481S BTK enzyme; type: biochemical; settings: Cysteine residue not available for covalent binding

T1 sequence (Q06187 whole entry): as the sequence (Q06187 whole entry C481S) above, with S481C counted along it

Structure (SMILES) | Conclusion (WT BTK) (WT BTK [1]) | tolerability [2] | IC50 [3] [nM] | pancreatic toxicity (mice) | pancreatic toxicity (dogs) | pancreatic toxicity (rats) | IC50 (WT BTK [4]) [nM] | IC50 (C481S BTK [5]) [nM] | mode of binding to C481S BTK (C481S BTK [6]) | fold more potent than ACT-196 in C481S BTK assay (C481S BTK [5]) | fold more potent than Ibrutinib in C481S BTK assay (C481S BTK [5])
C[C@H]1CN(C2COC2)CCN1c1ccc(Nc2cc(-c3ccnc(N4CCn5c(cc6c5CC(C)(C)C6)C4=O)c3CO)cn(C)c2=O)nc1 [GDC-0853] | Reversible | well-tolerated | 2 to 9 | does not occur | does not occur | pancreatic toxicity |  |  |  |  | 
C=CC(=O)Nc1cc(Nc2nc(-c3ccnc(N4CCn5c(cc6c5CC(C)(C)C6)C4=O)c3C)cn(C)c2=O)ccc1N1CCN(C2COC2)C[C@@H]1C [Example 11, (S)—N-(5-((6-(2-(7,7-dimethyl-1-oxo-1,3,4,6,7,8-hexahydro-2H-cyclopenta[4,5]pyrrolo[1,2-a]pyrazin-2-yl)-3-methylpyridin-4-yl)-4-methyl-3-oxo-3,4-dihydropyrazin-2-yl)amino)-2-(2-methyl-4-(oxetan-3-yl)piperazin-1-yl)phenyl)acrylamide] | irreversible inhibitors; also recorded: Irreversible/covalent inhibition |  |  |  |  |  | < 1 | < 1 |  |  | 
C=CC(=O)Nc1cc(Nc2nc(-c3ccnc(N4CCn5c(cc6c5CC(C)(C)C6)C4=O)c3CO)cn(C)c2=O)ccc1N1CCC(N2CCOCC2)CC1C (stereo not drawn) [Example 12, N-(5-((6-(2-(7,7-dimethyl-1-oxo-1,3,4,6,7,8-hexahydro-2H-cyclopenta[4,5]pyrrolo[1,2-a]pyrazin-2-yl)-3-(hydroxymethyl)pyridin-4-yl)-4-methyl-3-oxo-3,4-dihydropyrazin-2-yl)amino)-2-(2-methyl-4-morpholinopiperidin-1-yl)phenyl)acrylamide] | irreversible inhibitors; also recorded: Irreversible/covalent inhibition |  |  |  |  |  | < 1 | < 1 |  |  | 
C=CC(=O)Nc1cc(Nc2nc(-c3ccnc(N4CCn5c(cc6c5CC(C)(C)C6)C4=O)c3CO)cn(C)c2=O)ccc1N1CCN(C)CC1 [Example 2, N-(5-((6-(2-(7,7-dimethyl-1-oxo-1,3,4,6,7,8-hexahydro-2H-cyclopenta[4,5]pyrrolo[1,2-a]pyrazin-2-yl)-3-(hydroxymethyl)pyridin-4-yl)-4-methyl-3-oxo-3,4-dihydropyrazin-2-yl)amino)-2-(4-methylpiperazin-1-yl)phenyl)acrylamide] | irreversible inhibitors; also recorded: Irreversible/covalent inhibition |  |  |  |  |  | 0.25 | 1.7 | reversibly bind | 477 | 64
C=CC(=O)Nc1cc(Nc2nc(-c3ccnc(N4CCn5c(cc6c5CC(C)(C)C6)C4=O)c3CO)cn(C)c2=O)ccc1N1CCN(C2COC2)C[C@@H]1C [Example 3, (S)—N-(5-((6-(2-(7,7-dimethyl-1-oxo-1,3,4,6,7,8-hexahydro-2H-cyclopenta[4,5]pyrrolo[1,2-a]pyrazin-2-yl)-3-(hydroxymethyl)pyridin-4-yl)-4-methyl-3-oxo-3,4-dihydropyrazin-2-yl)amino)-2-(2-methyl-4-(oxetan-3-yl)piperazin-1-yl)phenyl)acrylamide] | irreversible inhibitors; also recorded: Irreversible/covalent inhibition |  |  |  |  |  | < 1 | < 1 |  |  | 
